Key:
[1] = test system: Hela human uterine neck cancer cells; assay: Inhibition of propagation of cancer cells, MTT method, 48 hours; type: cell-based; conditions: 37° C.
Experimental: (§1) L1210 mouse leukemia cells, P388 mouse leukemia cells, Hela human uterine neck cancer cells, T24 human bladder cancer cells or MCF7 human mammary cancer cells were suspended in Eagle medium (Hela and T24) containing 10% bovine fetal serum, PRMI1640 medium (L1210 and MCF7) or PRM11740 medium (P388) mixed with 5×10^-5 M mercaptoethanol, and the cells were seeded on a 96-well plate at an inoculum size of 3×10^3 cells per hole. A compound obtained in an example described below or cysplatin (CDDP) was diluted with physiological saline solution and added to the medium at various concentrations. Culturing was conducted at 37° C. for 48 hours in a carbon dioxide incubator, and the propagation of cells was determined by the MTT [3-(4,5-dimethylthiazol-2-yl-)-2,5-diphenyl tetrazolium bromide] method (J. Immunol. Method, 65, 55, 1983). The absorbance A after 48 hours of culturing at each concentration, the absorbance B after 48 hours of culturing in the control, and the absorbance C before addition of the compound obtained in the example were determined, and the propagation reaction rate D of each concentration was calculated from the following formula: [formula] The concentration IC50, unit: μg/ml) of the compound obtained in the example giving the value corresponding to 50% of the value of the control was determined from the curve showing the relationship between the concentration of the compound obtained in the example and the propagation reaction rate.

[2] = test system: L1210 mouse leukemia cells; assay: as above; type: cell-based; conditions: 37° C.
Experimental: as §1

[3] = test system: MCF7 human mammary cancer cells; assay: as above; type: cell-based; conditions: 37° C.
Experimental: as §1

[4] = test system: P388 mouse leukemia cells; assay: as above; type: cell-based; conditions: 37° C.
Experimental: as §1

[5] = test system: T24 human bladder cancer cells; assay: as above; type: cell-based; conditions: 37° C.
Experimental: as §1

[6] = test system: Mouse leukemia L1210 cells; assay: Anti-tumor effect (life prolongation) in mice transplanted with L1210 cells; type: in vivo, mouse (female BDF1); conditions: abdominal cavity; for ILS30 (dose giving a 30% life-prolonging effect over the control group) / ILSmax (dose giving a highest life-prolonging effect) / TR (cure ratio; ILSmax/ILS30) / T/C (life prolongation ratio) / ratio of the number of surviving mice to the number of tested mice / Average Survival Day Number: once a day for 3 days; for ratio of the number of surviving mice to the number of tested mice: 30th day; for Average Survival Day Number: 30 days
Experimental: Mouse leukemia L1210 cells (1×10^5) were transplanted into the abdominal cavity of a 6-weeks-old female BDF1 mouse. Then, continuously for 3 days from the next day, a compound of a compound obtained in an example described below or CDDP was administered to the abdominal cavity once a day. In the control group, physiological saline solution alone was similarly administered.
The anti-tumor effect was evaluated based on the life prolongation ratio (T/C value) determined from the average survival day numbers of the group of the compound obtained in the example and the control group after 30 days from the transplantation of L1210. On the 30th day from the transplantation, the experiment was concluded. In the case of mice surviving for more than 30 days, the survival day number was regarded as 30. [formula] The average survival day number at each dose, the T/C value (%) and the ratio of the number of surviving mice upon termination of the experiment to the number of tested mice are shown in Table 2. The ILS30 value (the dose giving a 30% life-prolonging effect over the control group), the ILSmax value (the dose giving a highest life-prolonging effect), the TR value (cure ratio; ILSmax /ILS30) and the CR value (the ratio of the number of mice completely cured at the ILSmax value and the number of mice showing no propagation of a tumor after 30 days from the transplantation to the number of tested mice) are shown in Table 3.
Note, 1 indicates the ratio of the number of surviving mice to the number of tested mice.

[7] = Acute toxicity test; type: in vivo, mouse (male, ICR family); conditions: administration into the abdominal cavity, male ICR mice

Compound | IC50 [1] [mg/L] | IC50 [2] [mg/L] | IC50 [3] [mg/L] | IC50 [4] [mg/L] | IC50 [5] [mg/L] | ILS30 (dose giving a 30% life-prolonging effect over the control group) [6] [mg/kg] | ILSmax (dose giving a highest life-prolonging effect) [6] [mg/kg] | TR (cure ratio; ILSmax/ILS30) [6] | CR (ratio of mice completely cured at ILSmax and showing no propagation of a tumor after 30 days to tested mice) [6] | also measured
[NH2][Pt]([NH2])([Cl])[Cl] [CDDP, cisplatin, reference compound] | 1.42 | 0.46 | 3.28 | 0.09 | 1.51 | 1.5 | 6.0 | 4 | 3/6 | LD50 [7]: 14.6 mg/kg
1:1 mixture of oxalate-(1R,2R)-diaminocyclooctane platinum (II) and oxalate-(1S,2S)-diaminocyclooctane platinum (II) [Example 1] | 0.29 | 0.03 | 0.41 | 0.06 | 1.43 | 0.06 | 10.0 | 167 | 6/6 | T/C (life prolongation ratio) ([6]; 0.3 mg/kg): > 183%; ratio of the number of surviving mice to the number of tested mice ([6]; 0.3 mg/kg): 1/6; Average Survival Day Number ([6]; 0.3 mg/kg): > 16.8 days; T/C (life prolongation ratio) ([6]; 1.0 mg/kg): > 214%; ratio of the number of surviving mice to the number of tested mice ([6]; 1.0 mg/kg): 1/6; Average Survival Day Number ([6]; 1.0 mg/kg): > 19.7 days; T/C (life prolongation ratio) ([6]; 3.0 mg/kg): > 220%; ratio of the number of surviving mice to the number of tested mice ([6]; 3.0 mg/kg): 2/6; Average Survival Day Number ([6]; 3.0 mg/kg): > 20.3 days; T/C (life prolongation ratio) ([6]; 10.0 mg/kg): > 326%; ratio of the number of surviving mice to the number of tested mice ([6]; 10.0 mg/kg): 6/6; Average Survival Day Number ([6]; 10.0 mg/kg): > 30.0 days

— US5214174A, “Platinum complex and anti-tumor agent comprising said complex as active ingredient” (Tsumura & Co., priority 1989, dated 1993)
